From patent US6468537B1, “Localization of major peptide autoepitopes for nucleosome specific T cells of systemic lupus erythematosus” (The Board of Trustees of Northwestern University, priority 1999, dated 2002)

Assays:
[1] = test system: anti-DNA autoantibodies of lupus; settings: cited from earlier work
[2] = test system: splenic T cells of pre-nephritic SNF1 mice; settings: cited from earlier work
SNF1 mice [3] = test: Brief therapy with nucleosomal histone peptides (long-term experiments): incidence of severe nephritis; format: in vivo, mouse
Protocol: (§1) Long-term experiments used 12 week-old, autoimmune, but pre-nephritic SNF1 female mice. Nine mice per peptide test group were injected intravenously with either a saline (solution) or a peptide solution comprising saline and 300 micrograms of one of H2B10-33, H416-39, and H471-94. Each mouse received three subsequent injections of either the saline solution or one of the peptide solutions at two-week intervals. The mice were monitored weekly for proteinuria using an Albustix kit (VWR Scientific, Chicago, Ill.), and sacrificed upon the development of persistent proteinuria. Persistent protenuria was identified as an amount of protein in urine that is equivalent to or greater than 300 milligrams per deciliter, and is a primary indication of severe kidney disease and damage associated with nephritis. Sera were collected from each mouse and the IgG anti-nuclear autoantibodies determined. Blood urea nitrogen (BUN) was measured by Azostix (Miles, Ekhart, Ind.). Immune complex deposition and glomerulonephritis in the kidney were detected by staining with Hematoxylin and Eosin and anti-mouse Ig. These procedures were carried out as previously described (Mohan et al., 1993, J. Exp. Med. 177:1367; Mohan et al., 1995, J. Immunol. 154:1470; Eastcott et al., 1983, J. Immunol. 131:2232; Adams et al., 1991, Proc. Natl. Acad. Sci. USA 88:11271; Kalled et al., 1998, J. Immunol. 160:2158; Gaynor et al., 1997, Proc. Natl. Acad. Sci. USA 94:1955).

SNF1 mice [4] = test: Short-term tolerance experiments: grading of lupus nephritis at sacrifice; format: in vivo, mouse; settings: short-term batch, at sacrifice two weeks after last injection
Protocol: Short-term experiments were conducted to test the early immunological consequences of tolerance therapy. Twelve week old SNF1 mice were injected once a week for four weeks with either a saline solution or a peptide solution comprising saline and 300 micrograms of one of the above described peptides. Mice were sacrificed at two weeks after the last injection. Presence of autoimmune T and B cells was analyzed and renal lesions were graded.

CD4+ T cells = test: Helper assay: CD4+ T cells from peptide-injected mice co-cultured with B cells from unmanipulated SNF1 mice; format: cell-based, mouse; settings: for reduction of anti-ssDNA antibody production relative to control group / reduction of anti-dsDNA antibody production compared with control group: T cells from treated mice + B cells from unmanipulated mice; for reduction of anti-dsDNA antibody production compared with control group: 7 days; for increase in help for anti-dsDNA antibody production following addition of rIL-2: rIL-2 added at beginning of 7-day culture
Source text: (§2) Levels of IgG class autoantibodies specific for single-stranded DNA (ssDNA), double-stranded DNA (dsDNA), histones, and nucleosomes (i.e. histone-DNA complexes), in culture supernatants or serum, were estimated using an enzyme-linked immunosorbent assay (ELISA). Anti-DNA mAbs 564 and 205 were used to generate standard curves as previously described (Mohan et al., 1993, J. Exp. Med. 177:1367; Kaliyaperumal et al., 1996, J. Exp. Med. 183:2459; Mohan et al., 1995, J. Immunol. 154:1470; Adams et al., 1991, Proc. Natl. Acad. Sci. USA 88:11271). Sera were diluted 1:400 and heat-inactivated before use according to standard procedures. Sera from normal SWR mice were used as the negative control. Total polyclonal IgG levels were also measured by ELISA as previously described (Mohan et al., 1993, J. Exp. Med. 177:1367; Mohan et al., 1995, J. Immunol. 154:1470; Adams et al., 1991, Proc. Natl. Acad. Sci. USA 88:11271).
(§3) T-cells from peptide-treated mice used in the short-term experiments were co-cultured with splenic B cells from unmanipulated mice. Conversely, T cells from unmanipulated SNF1 mice (i.e. control mice) were co-cultured with splenic B cells from tolerized (i.e. peptide-injected) mice. Each of the cell types was seeded in 24-well plates at an initial concentration of 2.5×10^6 cells per well. Cultures were maintained for 7 days, as previously described (Datta et al., 1987, J. Exp. Med. 165:1252; Sainis and Datta, 1988, J. Immunol. 140:2215). B cells from unmanipulated or tolerized animals were cultured alone to measure baseline autoantibody production. Culture supernatants were collected, freeze-thawed, and assayed by ELISA for antibodies against ssDNA, dsDNA, histones and nucleosomes. For studies involving stimulation of B cells by soluble CD40 ligand, CD40L-CD8 fusion protein (Wortis et al., 1995, Proc. Natl. Acad. Sci. USA 92:3348) was added to either the co-culture wells or the wells with B cells alone and maintained in the medium for the entire 7-day culture period.

B cells [5] = test: Helper assay: B cells from peptide-injected mice co-cultured with CD4+ T cells from unmanipulated SNF1 mice; format: cell-based, mouse
Source text: as §2, §3

B cells [6] = test: Stimulation of purified B cells from peptide-injected mice (anti-Ig (Fab')2, rIL-4, CD40L, LPS); format: cell-based, mouse
Source text: as §2, §3

SNF1 mice [7] = test: IgG anti-nuclear autoantibody and total IgG levels in sera of peptide-injected mice (ELISA); format: in vivo, mouse; settings: sera 1:400
Protocol: as §1, §2

SNF1 mice [8] = test: Chronic therapy of established glomerulonephritis with nucleosomal peptides; format: in vivo, mouse; settings: for survival: by 26 months age; for mice alive: two months after start of treatment (all controls dead), 300 micrograms i.p. monthly, 18-month old mice
Protocol: Six mice per group were injected intraperitoneally once each month with either a saline solution or a peptide solution comprising saline and 300 micrograms of one of the identified peptides. The endpoint of these experiments was the development of moribund state due to renal failure.

HLA-DR = settings: cited from earlier work
[9] = at 28 weeks of age, 300 micrograms i.v., four injections at two-week intervals from 12 weeks
[10] = at 36-38 weeks of age, control 88.8%
[11] = rIL-2 added, not significant relative to control
[12] = at 36 weeks of age, control 26±3.2
[13] = at the start of treatment (12 weeks), control 5.5±0.3

Substance | incidence of severe nephritis (SNF1 mice [3]; [9]) | incidence of severe nephritis (SNF1 mice [3]; [10]) [%] | reduction of anti-ssDNA antibody production relative to control group (CD4+ T cells) | reduction of anti-dsDNA antibody production compared with control group (CD4+ T cells) | increase in help for anti-dsDNA antibody production following addition of rIL-2 (CD4+ T cells) | production of anti-nucleosome antibodies relative to control group (B cells [5]) | antibody production by B cells stimulated with anti-Ig (Fab')2 in presence or absence of rIL-4 (B cells [6]) | serum anti-dsDNA antibody level (SNF1 mice [7]; [12]) [units] | serum anti-dsDNA antibody level (SNF1 mice [7]; [13]) [units] | survival (SNF1 mice [8]) | mice alive (SNF1 mice [8]) | binding to HLA-DR (HLA-DR) | other results
H385-102: epitope in nucleosomal core histone H3, amino acid positions 85-102 (QSSAVMALQEACEAYLVG; UniProt P68431 86-103, looked up, fragment) | – | – | – | – | – | – | – | – | – | – | – | – | binding by anti-DNA autoantibodies [1]: also bound by spontaneously arising anti-DNA autoantibodies of lupus; response of splenic T cells [2]: spontaneously responded
H416-39: nucleosomal histone peptide of histone 4 protein (H4), amino acid positions 16-39 | did not develop disease | 11.1 | approximately 55% | approximately 50% | 35% | reduced by three fold | did not respond by increasing antibody production | 13.0±4.0 | 9.0±2.1 | all of the H416-39 group mice remained alive | none of the mice in H416-39 group had died | have actually been shown to bind HLA-DR | incidence of severe nephritis (SNF1 mice [3]; at 54 weeks of age): 55.5%; Percent Incidence, Grading of Lupus Nephritis 0 (SNF1 mice [4]): 33.3; Percent Incidence, Grading of Lupus Nephritis 1+ (SNF1 mice [4]): 66.6; increase in anti-nucleosome antibodies following addition of rIL-2 (CD4+ T cells; [11]): 20%; increase in anti-ssDNA antibodies following addition of rIL-2 (CD4+ T cells; [11]): 30%; ability of B cells to produce IgG autoantibodies in presence of T helper cells (B cells [5]): diminished levels of all autoantibodies; reduction of anti-histone antibody production relative to control group (B cells [5]): approximately 4 fold; level of anti-dsDNA antibodies produced by B cells (B cells [5]; control 160±18.5): 45±10.1 units per deciliter; production of anti-ssDNA antibodies by B cells (B cells [5]; control 170±10.9 units per deciliter): 60±7.9 units; antibody production by B cells with addition of CD40L and rIL-4 (B cells [6]): did not produce significant amounts of antibodies; animals exhibiting a reduction in proteinuria levels (SNF1 mice [8]; during the course of the experiment): 66.6%; proteinuria level after reduction (SNF1 mice [8]; reduced from 300-1000 milligrams per deciliter): less than 100 milligrams per deciliter
H471-94: histone 4 protein (H4) amino acids 71-94 | 33.3% | 33.3 | not significant | approximately 50% | did not exhibit any increase | remained significantly low | could be stimulated to produce autoantibodies at levels similar to those of the control mice | 17.1±2.7 | 5.4±1.1 | all of the H471-94 group mice had succumbed to renal disease | 66.6% | have actually been shown to bind HLA-DR | Percent Incidence, Grading of Lupus Nephritis 2+ (SNF1 mice [4]): 66.6; Percent Incidence, Grading of Lupus Nephritis 3+ (SNF1 mice [4]): 33.3; production of anti-histone antibodies relative to control group (B cells [5]): remained significantly low
